Laboratory results taken from US11584714B2 (priority 2018, dated 2023).
Counter-ions that a name gives are not always drawn. Like-named read-outs stand apart in the source and are kept apart here.

What was measured:
Assay type in all cases: biochemical
[1] = biological target: MASP-2 (CCP1-CCP2-SP) (Homo sapiens (Human), UniProt O00187); test: biochemical
[2] = biological target: mMASP-2 (Mus musculus (Mouse), UniProt Q91WP0); test: Enzymatic inhibition of mMASP-2
[3] = biological target: human α-thrombin (Homo sapiens (Human), UniProt P00734); test: Enzymatic assay for thrombin (Boc-VPR-AMC substrate)
[4] = MASP-2 inhibition versus thrombin
[5] = selectivity for MASP-2 inhibition versus thrombin

Chain of mMASP-2 (Q91WP0 20-685): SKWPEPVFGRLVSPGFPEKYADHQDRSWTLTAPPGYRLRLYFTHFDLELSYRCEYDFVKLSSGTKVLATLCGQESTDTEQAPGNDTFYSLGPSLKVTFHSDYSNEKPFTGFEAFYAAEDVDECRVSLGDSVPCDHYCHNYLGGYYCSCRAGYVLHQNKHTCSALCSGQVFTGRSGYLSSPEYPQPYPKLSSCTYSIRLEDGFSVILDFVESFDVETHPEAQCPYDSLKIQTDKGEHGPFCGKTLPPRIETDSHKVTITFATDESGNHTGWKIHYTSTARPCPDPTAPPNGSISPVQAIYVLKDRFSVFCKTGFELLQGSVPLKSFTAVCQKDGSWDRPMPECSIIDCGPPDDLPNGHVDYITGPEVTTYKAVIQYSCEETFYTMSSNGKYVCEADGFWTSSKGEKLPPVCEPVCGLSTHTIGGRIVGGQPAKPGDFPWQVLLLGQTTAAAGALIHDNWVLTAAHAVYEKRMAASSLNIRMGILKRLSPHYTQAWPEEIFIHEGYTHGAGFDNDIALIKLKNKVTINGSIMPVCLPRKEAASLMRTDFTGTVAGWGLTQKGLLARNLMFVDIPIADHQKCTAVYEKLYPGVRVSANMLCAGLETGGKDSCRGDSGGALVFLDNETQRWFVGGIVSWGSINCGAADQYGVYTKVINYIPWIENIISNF
Chain of MASP-2 (CCP1-CCP2-SP) (O00187 445-686): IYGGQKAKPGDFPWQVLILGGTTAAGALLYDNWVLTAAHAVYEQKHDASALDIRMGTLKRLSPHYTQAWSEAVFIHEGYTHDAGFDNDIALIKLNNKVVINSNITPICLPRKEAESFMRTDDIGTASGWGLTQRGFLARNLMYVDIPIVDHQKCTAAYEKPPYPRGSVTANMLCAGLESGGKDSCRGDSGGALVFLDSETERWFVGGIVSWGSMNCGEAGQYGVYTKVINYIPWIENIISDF

SMILES | MASP-2 vs. thrombin selectivity [1, 4] | Ki ([1]; read-out: MASP-2 Ki) [µM] | Ki ([2]; read-out: mMASP-2 Ki) [nM] | Ki ([3]; read-out: Thrombin Ki) [µM] | Ki [1] [µM] | MASP-2 vs. thrombin selectivity [1, 5] | Ki ([3]; Thrombin Ki (μM)) [µM] | Ki ([1]; MASP-2 Ki (μM)) [µM] | Ki [2] [nM]
COc1cccc(CC[C@@H](N)C(=O)N[C@@H](C)C(=O)NCc2ccc(C(=N)N)cc2)c1 [compound 1075] | ** (5.0 to 25-fold) | < 0.5 | < 500 | < 0.5 | – | – | – | – | –
Cc1nc(N)ccc1CNC(=O)[C@H](C)NC(=O)[C@@H](CCc1ccccc1)NCc1ccc(C(=O)N2CCOCC2)cc1 [compound 1381, (R)—N—((S)-1-(((6-Amino-2-methylpyridin-3-yl)methyl)amino)-1-oxopropan-2-yl)-2-((4-(morpholine-4-carbonyl)benzyl)amino)-4-phenylbutanamide Di-trifluoroacetate salt] | – | – | 10000 to 25000 | – | 0.5 to 2.5 | ** (≥5.0 to <25-fold) | 10 to 25 | – | –
CC[C@H](NC(=O)[C@H](N)CCc1ccccc1)C(=O)NCc1ccc(C(=N)N)cc1 [compound 1289, (R)-2-Amino-N—((S)-1-((4-carbamimidoylbenzyl)amino)-1-oxobutan-2-yl)-4-phenylbutanamide] | – | < 0.5 | < 500 | < 0.5 | – | −− (<1.0-fold) | – | – | –
Cc1nc(N)ccc1CNC(=O)[C@H](C)NC(=O)[C@H]1C[C@H](C2(c3ccccc3)CC2)CN1 [compound 1481, (2R,4R)—N—((S)-1-(((6-Amino-2-methylpyridin-3-yl)methyl)amino)-1-oxopropan-2-yl)-4-(1-phenylcyclopropyl)pyrrolidine-2-carboxamide Di-trifluoroacetate salt] | – | < 0.5 | < 500 | – | – | **** (≥100-fold) | 2.5 to 10 | – | –
C[C@H](NC(=O)[C@H]1C[C@H](c2ccccc2)CN1)C(=O)NCc1ccc(C(=N)N)nc1 [compound 1272, (2R,4R)—N—((S)-1-(((6-Carbamimidoylpyridin-3-yl)methyl)amino)-1-oxopropan-2-yl)-4-phenylpyrrolidine-2-carboxamide] | – | < 0.5 | < 500 | – | – | *** (≥25 to <100-fold) | 0.5 to 2.5 | – | –
C[C@H](NC(=O)[C@H](N)CCc1cccc(F)c1)C(=O)NCc1ccc(C(=N)N)cc1 [compound 1048] | ** (5.0 to 25-fold) | < 0.5 | < 500 | < 0.5 | – | – | – | – | –
C[C@H](NC(=O)[C@H]1C[C@H](Cc2ccc(F)c(Cl)c2)CN1CC(=O)O)C(=O)NCc1cnc2c(c1)c(Cl)cn2C [compound 1484, 2-((2R,4S)-2-(((S)-1-(((3-Chloro-1-methyl-1H-pyrrolo[2,3-b]pyridin-5-yl)methyl)amino)-1-oxopropan-2-yl)carbamoyl)-4-(3-chloro-4-fluorobenzyl)pyrrolidin-1-yl)acetic acid Trifluoroacetate salt] | – | – | 500 to 2500 | > 25 | 0.5 to 2.5 | – | – | – | –
Cc1nc(N)ccc1CNC(=O)[C@H](C)NC(=O)[C@H]1C[C@@H](C(C)c2ccccc2)CN1 (mixture of isomers) [compound 1344, (2R,4S)—N—((S)-1-(((6-Amino-2-methylpyridin-3-yl)methyl)amino)-1-oxopropan-2-yl)-4-((±)-1-phenylethyl)pyrrolidine-2-carboxamide Dihydrochloride] | – | < 0.5 | < 500 | 2.5 to 10 | – | **** (≥100-fold) | – | – | –
C[C@H](NC(=O)[C@H]1C[C@@H](c2cccc(C#N)c2)CN1)C(=O)NCc1ccc(C(=N)N)cc1 [compound 1278, (2R,4S)—N—((S)-1-((4-Carbamimidoylbenzyl)amino)-1-oxopropan-2-yl)-4-(3-cyanophenyl)pyrrolidine-2-carboxamide] | – | < 0.5 | < 500 | – | – | *** (≥25 to <100-fold) | 2.5 to 10 | – | –
CC[C@H](NC(=O)[C@H]1C[C@H](c2ccccc2)CN1)C(=O)NCc1ccc(C(=N)N)cc1 [compound 1290, (2R,4R)—N—((S)-1-((4-carbamimidoylbenzyl)amino)-1-oxobutan-2-yl)-4-phenylpyrrolidine-2-carboxamide] | – | < 0.5 | < 500 | – | – | ** (≥5.0 to <25-fold) | 0.5 to 2.5 | – | –
Cc1nc(N)ccc1CNC(=O)[C@H](C)NC(=O)[C@H]1C[C@@H](Cc2ccccc2)CN1 [compound 1283, (2R,4R)—N—((S)-1-(((6-Amino-2-methylpyridin-3-yl)methyl)amino)-1-oxopropan-2-yl)-4-benzylpyrrolidine-2-carboxamide] | – | < 0.5 | 500 to 2500 | – | – | *** (≥25 to <100-fold) | 2.5 to 10 | – | –
C[C@H](NC(=O)[C@H]1C[C@H](Cc2ccccc2-c2ccccc2)CN1)C(=O)NCc1cc(Cl)ccc1-n1cnnn1 [compound 1402, (2R,4S)-4-([1,1′-Biphenyl]-2-ylmethyl)-N-((S)-1-((5-chloro-2-(1H-tetrazol-1-yl)benzyl)amino)-1-oxopropan-2-yl)pyrrolidine-2-carboxamide Trifluoroacetate] | – | < 0.5 | 500 to 2500 | < 0.5 | – | * (≥1.0 to <5.0-fold) | – | – | –
Cc1nc(N)ccc1CNC(=O)[C@H](C)NC(=O)[C@H]1C[C@H](Cc2csc(Cl)c2)CN1 [compound 1461, (2R,4S)—N—((S)-1-(((6-Amino-2-methylpyridin-3-yl)methyl)amino)-1-oxopropan-2-yl)-4-((5-chlorothiophen-3-yl)methyl)pyrrolidine-2-carboxamide Dihydrochloride] | – | < 0.5 | < 500 | – | – | **** (≥100-fold) | 0.5 to 2.5 | – | –
Cc1nc(N)ccc1CNC(=O)[C@H](C)NC(=O)[C@H]1C[C@H](c2ccccc2)CCN1 [compound 1308, (2R,4R)—N—((S)-1-(((6-Amino-2-methylpyridin-3-yl)methyl)amino)-1-oxopropan-2-yl)-4-phenylpiperidine-2-carboxamide Dihydrochloride] | – | – | 500 to 2500 | – | 0.5 to 2.5 | ** (≥5.0 to <25-fold) | 10 to 25 | – | –
Cc1nc(N)ccc1CNC(=O)[C@H](C)NC(=O)[C@H]1C[C@H](Cc2cc(C(F)(F)F)cc(C(F)(F)F)c2)CN1 [compound 1424, (2R,4S)—N—((S)-1-(((6-Amino-2-methylpyridin-3-yl)methyl)amino)-1-oxopropan-2-yl)-4-(3,5-bis(trifluoromethyl)benzyl)pyrrolidine-2-carboxamide Di-trifluoroacetate salt] | – | – | 500 to 2500 | < 0.5 | 0.5 to 2.5 | – | – | – | –
Cc1nc(N)ccc1CNC(=O)[C@H](C)NC(=O)[C@H]1C[C@H](Cc2ccc(-c3ccccc3)cc2)CN1 [compound 1351, (2R,4S)-4-([1,1′-Biphenyl]-4-ylmethyl)-N-((S)-1-(((6-amino-2-methylpyridin-3-yl)methyl)amino)-1-oxopropan-2-yl)pyrrolidine-2-carboxamide Dihydrochloride] | – | < 0.5 | < 500 | > 25 | – | **** (≥100-fold) | – | – | –
C[C@H](NC(=O)[C@H]1C[C@H](c2ccccc2)CN1)C(=O)NCc1ccc(C(=N)NC(=O)OCC(Cl)(Cl)Cl)cc1 [compound 1288, 2,2,2-Trichloroethyl (imino(4-(((S)-2-((2R,4R)-4-phenylpyrrolidine-2-carboxamido)propanamido)methyl)phenyl)methyl)carbamate] | – | – | – | > 25 | – | – | – | 2.5 to 10 | 2500 to 10000
